“And” between values parts separate entries of the source, which are not always exact repeats. Equal entries are not always repeated. Where two headings read alike, the source gives them in different places.
Legend:
hERG = conditions: cited from earlier work; for Reported EC50/IC50: PC-cc, et al.
[1] = system: hiPSC-derived cardiomyocytes; assay: KIC spontaneous calcium transients in hiPSC-derived cardiomyocytes; assay type: cell-based, human; conditions: for EC50 T75-25 (in words) / EC50 Decay (in words) / EC50 FWHM (in words) / EC50 Rise Time (in words): N.S., not significant vs vehicle by ANOVA/Dunnett; for Effect on spontaneous calcium transient (in words): dose-response
NRVMs [2] = assay: KIC Ca2+ transient analysis in neonatal rat ventricular myocytes; assay type: cell-based; conditions: for FWHM / T75-25 / TDecay / TRise: NRVMs treated three days with 100 nM T3, Ca2+ transient
hiPSC-CMs = assay type: cell-based, human; conditions: for Effect on paced [Ca^2+]i transients at 1 µM / Effect on paced [Ca^2+]i transients at 10 µM: 1 Hz pacing; for Effect on paced [Ca^2+]i transients at 0.1 µM: 4 stimulations at 1 Hz
L-type Ca^2+ channel = conditions: CR-mc; ref Ogawa, et al., 1992; cited from earlier work
hERG K^+ channel = conditions: PC-Xl; ref Hansen, et al., 2006; cited from earlier work
Na^+ channel = conditions: PC-Xl; ref Ramos & O'Leary, 2004; cited from earlier work
KATP channel = conditions: TM-ec; ref Houjou, et al., 1996; cited from earlier work
NRVMs [3] = assay: KIC calcium transients in T3-treated NRVMs paced at 2 Hz; assay type: cell-based, rat; conditions: NRVMs after T3 treatment, 100 µM, 12 seconds recording
[4] = Homo sapiens, Cardiomyocyte, read-out: EC50 Decay
[5] = Homo sapiens, Cardiomyocyte, read-out: EC50 FWHM
[6] = Homo sapiens, Cardiomyocyte, read-out: EC50 Rise Time
[7] = Average CTR minus average T3 (100 nM, three days)
[8] = read-out: EC50 Decay, spontaneous calcium transients, hiPSC-CMs
[9] = read-out: EC50 FWHM, spontaneous calcium transients, hiPSC-CMs
[10] = read-out: EC50 Rise Time, spontaneous calcium transients, hiPSC-CMs
[11] = read-out: EC50 T75-25, spontaneous calcium transients, hiPSC-CMs
[12] = Homo sapiens, Cardiomyocyte, read-out: EC50 T75-25

CC(C)NCC(O)c1ccc(NS(C)(=O)=O)cc1 (stereo not drawn) [Sotalol]
Reported EC50/IC50 (hERG; ref Peng, 2010): 268µM PC-cc
EC50 [1, 4]: 85700 nM
EC50 [1, 5]: 86300 nM
EC50 [1, 6]: 89100 nM
EC50 T75-25 (in words) [1]: None

N[C@@H](Cc1cc(I)c(Oc2ccc(O)c(I)c2)c(I)c1)C(=O)O [T3, Triiodothyronine]
Difference in ms, FWHM (NRVMs [2]; [7]): 311 ms
Difference in ms, T75-25 (NRVMs [2]; [7]): 215 ms
Difference in ms, TDecay (NRVMs [2]; [7]): 190 ms
Difference in ms, TRise (NRVMs [2]; [7]): 119 ms
FWHM (NRVMs [2]): 567 ± 9 ms
T75-25 (NRVMs [2]): 439 ± 44 ms
TDecay (NRVMs [2]): 462 ± 15 ms
TRise (NRVMs [2]): 104 ms and 104 ± 14 ms
FWHM (NRVMs [2]; listed as T3-1): 567 ms
T75-25 (NRVMs [2]; listed as T3-1): 390 ms
TDecay (NRVMs [2]; listed as T3-1): 447 ms
TRise (NRVMs [2]; listed as T3-1): 120 ms
FWHM (NRVMs [2]; listed as T3-2): 558 ms
T75-25 (NRVMs [2]; listed as T3-2): 450 ms
TDecay (NRVMs [2]; listed as T3-2): 462 ms
TRise (NRVMs [2]; listed as T3-2): 96 ms
FWHM (NRVMs [2]; listed as T3-3): 576 ms
T75-25 (NRVMs [2]; listed as T3-3): 477 ms
TDecay (NRVMs [2]; listed as T3-3): 477 ms
Reduction of FWHM (NRVMs [2]; T3 vs control NRVMs): 35%
Reduction of T75-25 (NRVMs [2]; T3 vs control NRVMs): 33%
Reduction of TDecay (NRVMs [2]; T3 vs control NRVMs): 29%
Reduction of TRise (NRVMs [2]; T3 vs control NRVMs): 53%

CCOc1cc(N)c(Cl)cc1C(=O)NCC1CN(Cc2ccc(F)cc2)CCO1 (stereo not drawn) [Mosapride]
Affinity for hERG relative to cisapride (hERG; ref Toga, Kohmura, & Kawatsu, 2007): three orders of magnitude less affinity for hERG
EC50 Decay (in words) [1]: N.S.
EC50 FWHM (in words) [1]: N.S.
EC50 Rise Time (in words) [1]: N.S.
EC50 T75-25 (in words) [1]: N.S.
Effect on spontaneous calcium transient (in words) ([1]; hiPSC-CMs): did not induce statistically significant changes
Effect on spontaneous calcium transient (in words) ([1]; hiPSC-CMs, listed as mosapride): minimal effect only at the highest concentrations
Effect on paced [Ca^2+]i transients at 1 µM (hiPSC-CMs): no discernible differences
Effect on paced [Ca^2+]i transients at 10 µM (hiPSC-CMs): pattern similar to 0.1 µM cisapride
Effect on paced [Ca^2+]i transients at 0.1 µM (hiPSC-CMs): no discernible differences

COC(=O)C1=C(C)NC(C)=C([N+](=O)[O-])C1c1ccccc1C(F)(F)F (stereo not drawn) [Bay K 8644]
Effect on spontaneous calcium transient (in words) ([1]; hiPSC-CMs): increased the transient amplitude and prolonged its duration
EC50 [1, 8]: 6.38 nM
EC50 [1, 9]: 11 nM
EC50 [1, 10]: 1300 nM
EC50 [1, 11]: 5.48 nM
Reported EC50/IC50 (L-type Ca^2+ channel): 10–100 nM CR-mc

O=C(Nc1cc(C(F)(F)F)ccc1O)Nc1cc(C(F)(F)F)ccc1O [NS1463, 1,3-Bis-(2-hydroxy-5-trifluoromethyl-phenyl)-urea]
EC50 [1, 4]: 2540 nM
EC50 [1, 5]: 7000 nM
EC50 [1, 6]: 3890 nM
EC50 [1, 12]: 2330 nM
Reported EC50/IC50 (hERG K^+ channel): 10.5µM PC-Xl

Cc1cccc(CCN2CCC(C(=O)c3ccc(NS(C)(=O)=O)cc3)CC2)n1 [E-4031]
EC50 [1, 8]: 45.7 nM
EC50 [1, 9]: 44.1 nM
EC50 [1, 10]: 38.6 nM
EC50 [1, 11]: 82.2 nM

CN(CCOc1ccc(NS(C)(=O)=O)cc1)CCc1ccc(NS(C)(=O)=O)cc1 [Dofetilide]
EC50 [1, 4]: 0.75 nM
EC50 [1, 12]: 5.87 nM
EC50 FWHM (in words) [1]: N.S
EC50 Rise Time (in words) [1]: N.S.

O=C(NCC1CCCCN1)c1cc(OCC(F)(F)F)ccc1OCC(F)(F)F (stereo not drawn) [Flecainide]
EC50 [1, 4]: 1010 nM
EC50 [1, 6]: 9670 nM
EC50 [1, 12]: 1130 nM
EC50 FWHM (in words) [1]: N.S.
Reported EC50/IC50 (Na^+ channel): 7.4 µM PC-Xl

CC1(C)Oc2ccc(C#N)cc2[C@@H](N2CCCC2=O)[C@@H]1O [Levcromakalim]
Reported EC50/IC50 (KATP channel): 1.73 µM TM-ec
EC50 [1, 4]: 5280 nM
EC50 [1, 5]: 9160 nM
EC50 [1, 6]: 3720 nM
EC50 [1, 12]: 3070 nM

CC(=O)Oc1ccccc1C(=O)O [Aspirin]
EC50 Decay (in words) [1]: N.S.
EC50 FWHM (in words) [1]: N.S.
EC50 Rise Time (in words) [1]: N.S.
EC50 T75-25 (in words) [1]: N.S.
Effect on spontaneous calcium transient (in words) ([1]; hiPSC-CMs): minimal effect only at the highest concentrations

COc1ccc(CCN(C)CCCC(C#N)(c2ccc(OC)c(OC)c2)C(C)C)cc1OC (stereo not drawn) [Verapamil]
EC50 [1, 4]: 170 nM
EC50 [1, 5]: 260 nM
EC50 [1, 6]: 460 nM
EC50 [1, 12]: 390 nM
Effect on spontaneous calcium transient (in words) ([1]; hiPSC-CMs): dose-dependent reduction in the intensity and duration of the calcium transient
Effect on spontaneous calcium transient (in words) ([1]; hiPSC-CMs, listed as verapamil): completely blocked the Ca^2+ transient

COc1cc(N)c(Cl)cc1C(=O)NC1CCN(CCCOc2ccc(F)cc2)CC1OC (stereo not drawn) [Cisapride]
Reported EC50/IC50 (hERG; ref Mohammad, 1997, Potet, 2001, Toga, 2007): 6.5–240 nM PC-cc
EC50 [1, 4]: 147 nM
EC50 [1, 5]: 149 nM
EC50 [1, 6]: 154 nM
EC50 T75-25 (in words) [1]: N.S
Effect on spontaneous calcium transient at 10 nM ([1]; hiPSC-CMs, 10 nM): prolonged the calcium transient
Effect on spontaneous calcium transient at 100 nM ([1]; hiPSC-CMs, 100 nM): reduction in the intensity of the transient and prolongation of the late phase of the decay
Effect on spontaneous calcium transient at higher concentrations ([1]; hiPSC-CMs, concentrations above 100 nM): completely inhibited the occurrence of spontaneous transients
Effect on paced [Ca^2+]i transients at 1 µM (hiPSC-CMs): almost fused and the maxima were reduced to about half of the initial peak
Effect on paced [Ca^2+]i transients at 10 µM (hiPSC-CMs): narrowed and follow-on maxima were decreased
Effect on paced [Ca^2+]i transients at 0.1 µM (hiPSC-CMs): anomalous [Ca^2+]i kinetics

C[C@@H]1CN(c2c(F)c(N)c3c(=O)c(C(=O)O)cn(C4CC4)c3c2F)C[C@H](C)N1 [sparfloxacin]
Effect on paced calcium transients (NRVMs [3]): highly asynchronous calcium transients
